{
  "source": "patent US6573218B1",
  "about": "“Fused-benzene derivatives useful as herbicides” (Ishihara Sangyo Kaisha, Ltd., priority 1998, dated 2003)",
  "assay_type_in_all_cases": "in vivo",
  "key": {"[1]": {"system": "redroot pigweed (Amaranthus retroflexus, AMARE)", "assay": "Pre-emerge greenhouse herbicide test", "conditions": "250 g ai/ha, 14 days after application, scale 0-100 (0 no damage, 100 complete death)", "from_the_text": "(§1) A standard greenhouse herbicide activity screening system was used to evaluate the herbicidal efficacy and crop safety of these test compounds. Seven broadleaf weed species including redroot pigweed (Amaranthus retroflexus, AMARE), velvetleaf (Abutilon theophrasti, ABUTH), sicklepod (Cassia obtusifolia, CASOB), ivyleaf morningglory (Ipomoea hederacea, IPOHE), lambsquarters (Chenopodium album, CHEAL), common ragweed (Ambrosia artemisiifolia L., AMBEL), and cocklebur (Xanthium strumarium, XANST) were used as test species. Four grass weed species including green foxtail (Setaria viridis, SETVI), barnyardgrass (Echinochloa crus-galli, ECHCG), johnsongrass (Sorghum halepense, SORHA), and large crabgrass (Digitaria sanguinalis, DIGSA) were also used. In addition, three crop species, field corn (Zea mays L., var. Dekalb 527, CORN), soybean (Glycine max L., var. Pella 86, SOY), and upland rice (Ory0a sp., var.Tebonnet, RICE) were included.\n(§2) All plants were grown in 10 cm square plastic pots which were filled with a sandy loam soil mix. For pre-emerge tests, seeds were planted one day prior to application of the test compounds. For post-emerge tests, seeds were planted 8-21 days prior to the test to allow emergence and good foliage development prior to application of the test substances. At the time of the post-emerge application, plants of all species were usually at the 2-3 leaf stage of development.\n(§3) All test compounds were dissolved in acetone and applied to the test units in a volume of 187 l/ha. Test materials were applied at rates ranging from 15 g ai/ha to 1000 g ai/ha using a track sprayer equipped with a TJ8001E even flow flat fan spray nozzle. Plants were arranged on a shelf so that the top of the canopy (post-emerge) or top of the soil surface (pre-emerge) was 40-45 cm below the nozzle. Pressurized air was used to force the test solution through the nozzle as it was mechanically advanced over the top of all test plants/pots. This application simulates a typical commercial field herbicide application.\n(§4) In the post-emerge test, a commercial non-ionic surfactant was also included (0.25% v/v) to enhance wetting of the leaf surfaces of target plants. Immediately after application, test units of the pre-emerge applications were watered at the soil surface to incorporate the test materials.\n(§5) At 14 days after application of the test materials, phytotoxicity ratings were recorded. A rating scale of 0-100 was used as previously described in Research Methods in Weed Science, 2nd edition, B. Truelove, Ed., Southern Weed Science Society, Auburn University, Auburn, Ala., 1977. Briefly, “0” corresponds to no damage and “100” corresponds to complete death of all plants in the test unit. This scale was used both to determine efficacy against weed species and damage to crop species. Herbicide activity data for various compounds of this invention, which are shown by compound No. in Tables 1-14, are shown in Tables 16 and 17."}, "[2]": {"system": "lambsquarters (Chenopodium album, CHEAL)", "assay": "Pre-emerge greenhouse herbicide test", "conditions": "250 g ai/ha, 14 days after application, scale 0-100 (0 no damage, 100 complete death)", "from_the_text": "as §1, §2, §3, §4, §5"}, "[3]": {"system": "barnyardgrass (Echinochloa crus-galli, ECHCG)", "assay": "Pre-emerge greenhouse herbicide test", "conditions": "250 g ai/ha, 14 days after application, scale 0-100 (0 no damage, 100 complete death)", "from_the_text": "as §1, §2, §3, §4, §5"}, "[4]": {"system": "large crabgrass (Digitaria sanguinalis, DIGSA)", "assay": "Pre-emerge greenhouse herbicide test", "conditions": "250 g ai/ha, 14 days after application, scale 0-100 (0 no damage, 100 complete death)", "from_the_text": "as §1, §2, §3, §4, §5"}, "[5]": {"system": "ivyleaf morningglory (Ipomoea hederacea, IPOHE)", "assay": "Pre-emerge greenhouse herbicide test", "conditions": "250 g ai/ha, 14 days after application, scale 0-100 (0 no damage, 100 complete death)", "from_the_text": "as §1, §2, §3, §4, §5"}, "[6]": {"system": "green foxtail (Setaria viridis, SETVI)", "assay": "Pre-emerge greenhouse herbicide test", "conditions": "250 g ai/ha, 14 days after application, scale 0-100 (0 no damage, 100 complete death)", "from_the_text": "as §1, §2, §3, §4, §5"}, "[7]": {"system": "velvetleaf (Abutilon theophrasti, ABUTH)", "assay": "Pre-emerge greenhouse herbicide test", "conditions": "250 g ai/ha, 14 days after application, scale 0-100 (0 no damage, 100 complete death)", "from_the_text": "as §1, §2, §3, §4, §5"}, "[8]": {"system": "sicklepod (Cassia obtusifolia, CASOB)", "assay": "Pre-emerge greenhouse herbicide test", "conditions": "250 g ai/ha, 14 days after application, scale 0-100 (0 no damage, 100 complete death)", "from_the_text": "as §1, §2, §3, §4, §5"}, "[9]": {"system": "field corn (Zea mays L., var. Dekalb 527, CORN)", "assay": "Post-emerge greenhouse crop damage test", "conditions": "250 g ai/ha, post-emerge, 14 days after application", "from_the_text": "as §1, §2, §3, §4, §5"}, "[10]": {"system": "soybean (Glycine max L., var. Pella 86, SOY)", "assay": "Post-emerge greenhouse crop damage test", "conditions": "in vivo", "from_the_text": "as §1, §2, §3, §4, §5"}, "[11]": {"system": "upland rice (Ory0a sp., var.Tebonnet, RICE)", "assay": "Post-emerge greenhouse crop damage test", "conditions": "250 g ai/ha, post-emerge, 14 days after application", "from_the_text": "as §1, §2, §3, §4, §5"}, "[12]": {"system": "johnsongrass (Sorghum halepense, SORHA)", "assay": "Post-emerge greenhouse herbicide test", "conditions": "250 g ai/ha, 14 days after application", "from_the_text": "as §1, §2, §3, §4, §5"}, "[13]": {"system": "redroot pigweed (Amaranthus retroflexus, AMARE)", "assay": "Post-emerge greenhouse herbicide test", "conditions": "250 g ai/ha, 14 days after application", "from_the_text": "as §1, §2, §3, §4, §5"}, "[14]": {"system": "lambsquarters (Chenopodium album, CHEAL)", "assay": "Post-emerge greenhouse herbicide test", "conditions": "250 g ai/ha, 14 days after application", "from_the_text": "as §1, §2, §3, §4, §5"}, "[15]": {"system": "barnyardgrass (Echinochloa crus-galli, ECHCG)", "assay": "Post-emerge greenhouse herbicide test", "conditions": "250 g ai/ha, 14 days after application", "from_the_text": "as §1, §2, §3, §4, §5"}, "[16]": {"system": "large crabgrass (Digitaria sanguinalis, DIGSA)", "assay": "Post-emerge greenhouse herbicide test", "conditions": "250 g ai/ha, 14 days after application", "from_the_text": "as §1, §2, §3, §4, §5"}, "[17]": {"system": "ivyleaf morningglory (Ipomoea hederacea, IPOHE)", "assay": "Post-emerge greenhouse herbicide test", "conditions": "250 g ai/ha, 14 days after application", "from_the_text": "as §1, §2, §3, §4, §5"}, "[18]": {"system": "green foxtail (Setaria viridis, SETVI)", "assay": "Post-emerge greenhouse herbicide test", "conditions": "250 g ai/ha, 14 days after application", "from_the_text": "as §1, §2, §3, §4, §5"}, "[19]": {"system": "velvetleaf (Abutilon theophrasti, ABUTH)", "assay": "Post-emerge greenhouse herbicide test", "conditions": "250 g ai/ha, 14 days after application", "from_the_text": "as §1, §2, §3, §4, §5"}, "[20]": {"system": "sicklepod (Cassia obtusifolia, CASOB)", "assay": "Post-emerge greenhouse herbicide test", "conditions": "250 g ai/ha, 14 days after application", "from_the_text": "as §1, §2, §3, §4, §5"}, "[21]": {"system": "field corn (Zea mays L., var. Dekalb 527, CORN)", "assay": "Pre-emerge greenhouse crop damage test", "conditions": "pre-emerge, 250 g ai/ha, 14 days after application, scale 0-100 (0 no damage, 100 complete death)", "from_the_text": "as §1, §2, §3, §4, §5"}, "[22]": {"system": "soybean (Glycine max L., var. Pella 86, SOY)", "assay": "Pre-emerge greenhouse crop damage test", "conditions": "pre-emerge, 250 g ai/ha, 14 days after application, scale 0-100 (0 no damage, 100 complete death)", "from_the_text": "as §1, §2, §3, §4, §5"}, "[23]": {"system": "upland rice (Ory0a sp., var.Tebonnet, RICE)", "assay": "Pre-emerge greenhouse crop damage test", "conditions": "pre-emerge, 250 g ai/ha, 14 days after application, scale 0-100 (0 no damage, 100 complete death)", "from_the_text": "as §1, §2, §3, §4, §5"}},
  "data": [
    {"compound": "CCc1nc2c(N3C(=O)C4CCCCN4C3=S)c(F)cc(Cl)c2o1", "note": "(single isomer, unassigned) [Compound 7-5, 8-(7-Chloro-2-ethyl-5-fluorobenzoxazol-4-yl)-1,8-diazobicyclo[4,3,0]nonane-7-one-9-thione]", "values": [
      {"measurement": "Pre-emerge Herbicidal Activity AMARE (phytotoxicity rating)", "setting": "[1]", "value": 50},
      {"measurement": "Pre-emerge Herbicidal Activity CHEAL (phytotoxicity rating)", "setting": "[2]", "value": 60},
      {"measurement": "Pre-emerge Herbicidal Activity ECHCG (phytotoxicity rating)", "setting": "[3]", "value": 0},
      {"measurement": "Pre-emerge Herbicidal Activity DIGSA (phytotoxicity rating)", "setting": "[4]", "value": 0},
      {"measurement": "Pre-emerge Herbicidal Activity IPOHE (phytotoxicity rating)", "setting": "[5]", "value": 0},
      {"measurement": "Pre-emerge Herbicidal Activity SETVI (phytotoxicity rating)", "setting": "[6]", "value": 0},
      {"measurement": "Pre-emerge Herbicidal Activity ABUTH (phytotoxicity rating)", "setting": "[7]", "value": 30},
      {"measurement": "Pre-emerge Herbicidal Activity CASOB (phytotoxicity rating)", "setting": "[8]", "value": 0},
      {"measurement": "Post-emerge crop damage CORN (phytotoxicity rating 0-100)", "setting": "[9]", "value": 20},
      {"measurement": "Post-emerge crop damage SOY (phytotoxicity rating 0-100)", "setting": "[10]", "value": 80},
      {"measurement": "Post-emerge crop damage RICE (phytotoxicity rating 0-100)", "setting": "[11]", "value": 10},
      {"measurement": "Post-emerge Herbicidal Activity SORHA (phytotoxicity rating 0-100)", "setting": "[12]", "value": 0},
      {"measurement": "Post-emerge Herbicidal Activity AMARE (phytotoxicity rating 0-100)", "setting": "[13]", "value": 100},
      {"measurement": "Post-emerge Herbicidal Activity CHEAL (phytotoxicity rating 0-100)", "setting": "[14]", "value": 100},
      {"measurement": "Post-emerge Herbicidal Activity ECHCG (phytotoxicity rating 0-100)", "setting": "[15]", "value": 0},
      {"measurement": "Post-emerge Herbicidal Activity DIGSA (phytotoxicity rating 0-100)", "setting": "[16]", "value": 10},
      {"measurement": "Post-emerge Herbicidal Activity IPOHE (phytotoxicity rating 0-100)", "setting": "[17]", "value": 100},
      {"measurement": "Post-emerge Herbicidal Activity SETVI (phytotoxicity rating 0-100)", "setting": "[18]", "value": 60},
      {"measurement": "Post-emerge Herbicidal Activity ABUTH (phytotoxicity rating 0-100)", "setting": "[19]", "value": 100},
      {"measurement": "Post-emerge Herbicidal Activity CASOB (phytotoxicity rating 0-100)", "setting": "[20]", "value": 100},
      {"measurement": "Pre-emerge Herbicidal Activity CORN (crop damage rating)", "setting": "[21]", "value": 0},
      {"measurement": "Pre-emerge Herbicidal Activity SOY (crop damage rating)", "setting": "[22]", "value": 0},
      {"measurement": "Pre-emerge Herbicidal Activity RICE (crop damage rating)", "setting": "[23]", "value": 0}
    ]}
  ]
}
